Results: patent US9815796B2 (Merck Sharp & Dohme Corp., priority 2013, dated 2017)
Read-outs that look alike come from different tables or passages of the source.

Assays:
Rhesus PDE2A3 = Rhesus PDE2A3 (Macaca mulatta, UniProt B3VTJ2); assay: PDE2 fluorescence polarization (IMAP FP) inhibition assay, rhesus enzyme; type: biochemical, rhesus macaque
Summary of the method: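 IMAP FP (mP from parallel and perpendicular fluorescence against substrate-only control) was read ≥1 h after adding binding reagent. The preceding 60 min room-temperature reaction contained FAM-cAMP (50 nM) and cGMP (1 uM) in pH 7.2 Tris buffer with MgCl2 and DTT. Enzyme was supernatant of sonicated AD293 cells expressing rhesus PDE2A3; compounds were 3-fold titrated, DMSO 1% final.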

human PDE2A1 = human PDE2A1 (Homo sapiens (Human), UniProt O00408); assay: IMAP FP PDE selectivity panel, human PDE2A1; type: biochemical
Summary of the method: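 IMAP FP format: substrate 50 nM FAM-cAMP plus 1000 nM cGMP, enzyme (insect-cell GST-tagged human PDE2A1) at ~20% conversion, 60 min reaction at room temperature. Apparent inhibition constants calculated from parallel/perpendicular fluorescence with KM 10,000 nM.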

[1] = Rhesus PDE2, Lab A, read-out: Rhesus PDE2 Ki (nM) - Lab A
[2] = Human PDE2, Lab A, read-out: Human PDE2 Ki (nM) - Lab A
[3] = Rhesus PDE2, Lab B, read-out: Rhesus PDE2 Ki (nM) - Lab B
[4] = Human PDE2, Lab B, read-out: Human PDE2 Ki (nM) - Lab B

human PDE2A1, sequence (O00408 other isoform, or with tags, fused parts or gaps): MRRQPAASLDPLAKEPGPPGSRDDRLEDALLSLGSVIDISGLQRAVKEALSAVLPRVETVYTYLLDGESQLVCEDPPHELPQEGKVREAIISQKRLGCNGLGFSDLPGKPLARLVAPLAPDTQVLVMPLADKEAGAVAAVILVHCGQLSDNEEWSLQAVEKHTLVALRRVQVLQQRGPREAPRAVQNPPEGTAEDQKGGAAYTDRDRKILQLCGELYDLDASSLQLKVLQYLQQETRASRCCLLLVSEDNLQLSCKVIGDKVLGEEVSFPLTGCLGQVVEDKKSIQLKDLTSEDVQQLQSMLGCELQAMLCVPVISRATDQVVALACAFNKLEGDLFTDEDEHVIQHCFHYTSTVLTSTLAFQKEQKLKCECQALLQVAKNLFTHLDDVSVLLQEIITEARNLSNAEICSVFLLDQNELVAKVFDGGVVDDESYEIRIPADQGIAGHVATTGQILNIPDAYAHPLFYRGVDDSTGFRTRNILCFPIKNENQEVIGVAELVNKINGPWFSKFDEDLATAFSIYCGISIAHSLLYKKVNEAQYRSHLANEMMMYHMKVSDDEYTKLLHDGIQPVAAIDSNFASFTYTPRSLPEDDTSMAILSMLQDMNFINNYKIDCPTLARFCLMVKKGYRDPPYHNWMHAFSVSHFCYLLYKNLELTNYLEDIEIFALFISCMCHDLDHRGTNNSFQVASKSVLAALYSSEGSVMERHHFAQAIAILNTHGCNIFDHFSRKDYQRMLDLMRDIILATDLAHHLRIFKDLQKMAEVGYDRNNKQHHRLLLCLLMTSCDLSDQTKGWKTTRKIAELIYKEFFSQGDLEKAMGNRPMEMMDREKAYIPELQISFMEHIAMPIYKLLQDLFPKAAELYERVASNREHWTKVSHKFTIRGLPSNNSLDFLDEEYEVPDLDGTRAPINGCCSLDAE
Rhesus PDE2A3, sequence (B3VTJ2 1-941): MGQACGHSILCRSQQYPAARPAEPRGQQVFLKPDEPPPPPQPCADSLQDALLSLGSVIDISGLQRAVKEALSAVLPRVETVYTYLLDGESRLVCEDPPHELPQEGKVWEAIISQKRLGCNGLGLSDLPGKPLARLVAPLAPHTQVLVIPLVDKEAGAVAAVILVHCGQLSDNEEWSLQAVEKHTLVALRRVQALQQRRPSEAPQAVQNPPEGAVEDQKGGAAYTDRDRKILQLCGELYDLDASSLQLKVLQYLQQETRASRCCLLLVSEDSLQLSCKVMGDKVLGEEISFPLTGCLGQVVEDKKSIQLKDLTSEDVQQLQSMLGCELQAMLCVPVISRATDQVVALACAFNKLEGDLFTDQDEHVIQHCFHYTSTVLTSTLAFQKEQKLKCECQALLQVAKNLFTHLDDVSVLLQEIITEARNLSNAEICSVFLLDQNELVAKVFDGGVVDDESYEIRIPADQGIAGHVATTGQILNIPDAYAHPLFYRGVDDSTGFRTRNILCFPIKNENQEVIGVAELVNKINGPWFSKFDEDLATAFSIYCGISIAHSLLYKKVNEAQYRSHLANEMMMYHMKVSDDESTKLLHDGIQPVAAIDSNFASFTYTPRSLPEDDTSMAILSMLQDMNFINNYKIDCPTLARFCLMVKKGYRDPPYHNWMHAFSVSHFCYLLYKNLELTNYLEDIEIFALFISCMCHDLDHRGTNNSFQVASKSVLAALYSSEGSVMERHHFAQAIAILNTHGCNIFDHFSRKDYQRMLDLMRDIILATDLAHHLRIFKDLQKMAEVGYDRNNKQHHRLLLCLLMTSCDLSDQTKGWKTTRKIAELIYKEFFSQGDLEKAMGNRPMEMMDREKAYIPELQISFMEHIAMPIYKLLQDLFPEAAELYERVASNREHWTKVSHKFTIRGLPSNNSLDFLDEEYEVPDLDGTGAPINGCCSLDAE

| SMILES | Ki (Rhesus PDE2A3; [1]) [nM] | Ki (human PDE2A1; [2]) [nM] | Ki (Rhesus PDE2A3; [3]) [nM] | Ki (human PDE2A1; [4]) [nM] |
| --- | --- | --- | --- | --- |
| O=C(NC1(c2ccc(C(F)(F)F)cc2)CCC1)c1cc(=O)[nH]c(-c2ccccc2)n1 [Example 278, 6-oxo-2-phenyl-N-{1-[4-(trifluoromethyl)phenyl]cyclobutyl}-1,6-dihydropyrimidine-4-carboxamide] | 18 | 12 | – | – |
| Cc1nc(C(=O)N[C@@H](c2ccc(C(F)(F)F)c(F)c2)C2(C)CC2)cc(=O)[nH]1 [Example 613, N-[(R)-[3-fluoro-4-(trifluoromethyl)phenyl](1-methylcyclopropyl)methyl]-2-methyl-6-oxo-1,6-dihydropyrimidine-4-carboxamide] | – | – | 13 | 12 |
| CC[C@@H](NC(=O)c1cc(=O)[nH]c(Cc2ccc(OC)c(F)c2)n1)c1ccc(S(F)(F)(F)(F)F)cc1 [Example 526, 2-(3-fluoro-4-methoxybenzyl)-6-oxo-N-{(1R)-1-[4-(pentafluoro-λ^6-sulfanyl)phenyl]propyl}-1,6-dihydropyrimidine-4-carboxamide] | – | – | 4.1 | 3.9 |
| O=C(NC1(c2ccc(SC(F)(F)F)cc2)CC1)c1cc(=O)[nH]c(-c2ncccn2)n1 [Example 77, 6-oxo-N-(1-{4-[(trifluoromethyl)sulfanyl]phenyl}cyclopropyl)-1,6-dihydro-2,2′-bipyrimidine-4-carboxamide] | 19 | – | 14 | 21 |
| CC(C)(C)[C@@H](NC(=O)c1cc(=O)[nH]c(C2CC2)n1)c1ccc(CC(F)(F)F)cc1 [Example 441, 2-cyclopropyl-N-{(1R)-2,2-dimethyl-1-[4-(2,2,2-trifluoroethyl)phenyl]propyl}-6-oxo-1,6-dihydropyrimidine-4-carboxamide] | – | – | 3.8 | 6.4 |
| C[C@@H](NC(=O)c1nc[nH]c(=O)c1C1CCC1)c1ccc(C(F)(F)F)cc1 [Example 334, (R)-5-cyclobutyl-6-oxo-N-(1-(4-(trifluoromethyl)phenyl)ethyl)-1,6-dihydropyrimidine-4-carboxamide] | 2830 | 2370 | – | – |
| CC(C)(NC(=O)c1cc(=O)[nH]c(C2CC2)n1)c1ccc(C(F)(F)F)cc1 [Example 293, 2-cyclopropyl-N-{1-methyl-1-[4-(trifluoromethyl)phenyl]ethyl}-6-oxo-1,6-dihydropyrimidine-4-carboxamide] | 22 | 20 | – | – |
| Cc1nc(C(=O)N[C@H](C)c2cccc3ccccc23)cc(=O)[nH]1 [Example 301, (R)-2-methyl-N-(1-(naphthalen-1-yl)ethyl)-6-oxo-1,6-dihydropyrimidine-4-carboxamide] | 53 | 66 | – | – |
| CC(C)(C)[C@@H](NC(=O)c1cc(=O)[nH]c(-c2ccccc2)n1)c1ccc(C(F)(F)F)cc1 [Example 337, N-{(1R)-2,2-dimethyl-1-[4-(trifluoromethyl)phenyl]propyl}-6-oxo-2-phenyl-1,6-dihydropyrimidine-4-carboxamide] | 0.4 | – | 1.2 | 1.1 |
| COCc1nc(C(=O)N[C@H](C)c2ccc(OC(F)(F)F)cc2)cc(=O)[nH]1 [Example 113, 2-(methoxymethyl)-6-oxo-N-{(1R)-1-[4-(trifluoromethoxy)phenyl]ethyl}-1,6-dihydropyrimidine-4-carboxamide] | 84 | 16 | – | – |
| O=C(NC(CO)c1ccc(C(F)(F)F)cc1)c1cc(=O)[nH]c(C2CC2)n1 (stereo not drawn) [Example 294, 2-cyclopropyl-N-{2-hydroxy-1-[4-(trifluoromethyl)phenyl]ethyl}-6-oxo-1,6-dihydropyrimidine-4-carboxamide] | 69 | 46 | – | – |
| Cc1nc(C(=O)NC(C)(c2ccc(S(F)(F)(F)(F)F)cc2)C(C)C)cc(=O)[nH]1 (single isomer, unassigned) [Example 663, (R)- or (S)-N-{1,2-dimethyl-1-[4-(pentafluoro-λ^6-sulfanyl)phenyl]propyl}-2-methyl-6-oxo-1,6-dihydropyrimidine-4-carhoxamide] | – | – | 30 | 34 |
| COc1ccc(C(C)(C)c2nc(C(=O)N[C@@H](c3ccc(C(F)(F)F)c(F)c3)C(C)(C)C)cc(=O)[nH]2)cc1 [Example 489, N-{(1R)-1-[3-fluoro-4-(trifluoromethyl)phenyl]-2,2-dimethylpropyl}-2-[1-(4-methoxyphenyl)-1-methylethyl]-6-oxo-1,6-dihydropyrimidine-4-carboxamide] | – | – | 69 | 61 |
| O=C(NC1(c2ccc(C(F)(F)F)cc2)CC1)c1cc(=O)[nH]c(-c2ncccn2)n1 [Example 284, 6-oxo-N-{1-[4-(trifluoromethyl)phenyl]cyclopropyl}-1,6-dihydro-2,2′-bipyrimidine-4-carboxamide] | 43 | 36 | – | – |
| Cc1nc(C(=O)NC2(c3ccc(C(F)(F)F)cc3)CC2)cc(=O)[nH]1 [Example 1, 2-Methyl-6-oxo-N-{1-[4-(trifluoromethyl)phenyl]cyclopropyl}-1,6-dihydropyrimidine-4-carboxamide] | 21 | 16 | 28 | 36 |
| CC[C@@H](NC(=O)c1cc(=O)[nH]c(-c2ncccn2)n1)c1ccc(SC(F)(F)F)c(F)c1 [Example 263, N-[(1R)-1-{3-fluoro-4-[(trifluoromethyl)sulfanyl]phenyl}propyl]-6-oxo-1,6-dihydro-2,2′-bipyrimidine-4-carboxamide] | 1.5 | – | 1.9 | 2.1 |
| O=C(N[C@@H](c1ccc(C(F)(F)F)c(F)c1)C1CC1)c1cc(=O)[nH]c(C2CC2)n1 [Example 210, 2-cyclopropyl-N-{(R)-cyclopropyl[3-fluoro-4-(trifluoromethyl)phenyl]methyl}-6-oxo-1,6-dihydropyrimidine-4-carboxamide] | 6 | 3 | – | – |
| Cc1nc(C(=O)N[C@H](C)c2ccc(C(F)(F)F)cc2F)cc(=O)[nH]1 [Example 19, N-{(1R)-1-[2-fluoro-4-(trifluoromethyl)phenyl]ethyl}-2-methyl-6-oxo-1,6-dihydropyrimidine-4-carboxamide] | 96 | 81 | – | – |
| CCC(NC(=O)c1cc(=O)[nH]c(-c2ccccc2)n1)c1ccc(C(C)(C)C)cc1 (stereo not drawn) [Example 163, N-[1-(4-tert-butylphenyl)propyl]-6-oxo-2-phenyl-1,6-dihydropyrimidine-4-carboxamide] | 61 | 36 | – | – |
| CC1(C(NC(=O)c2cc(=O)[nH]c(-c3ncccn3)n2)c2ccc(SC(F)(F)F)c(F)c2)CC1 (single isomer, unassigned) [Example 709, (R)- or (S)-N-((3-fluoro-4-((trifluoromethyl)thio)phenyl)(1-methylcyclopropyl)methyl)-6-oxo-1,6-dihydro-[2,2′-bipyrimidine]-4-carboxamide] | – | – | 8.1 | 7.4 |
| CC(C)(NC(=O)c1cc(=O)[nH]c(-c2ccccc2)n1)c1ccc(C(F)(F)F)cc1 [Example 280, N-{1-methyl-1-[4-(trifluoromethyl)phenyl]ethyl}-6-oxo-2-phenyl-1,6-dihydropyrimidine-4-carboxamide] | 19 | 16 | – | – |
| COc1ccc(Cc2nc(C(=O)N[C@@H](c3ccc(C(F)(F)F)c(F)c3)C3CC3)cc(=O)[nH]2)cc1F [Example 522, N-{(R)-cyclopropyl[3-fluoro-4-(trifluoromethyl)phenyl]methyl}-2-(3-fluoro-4-methoxybenzyl)-6-oxo-1,6-dihydropyrimidine-4-carboxamide] | – | – | 2.9 | 2.6 |
| C[C@@H](NC(=O)c1cc(=O)[nH]c(C2CC2)n1)c1ccc(CC(F)(F)F)cc1 [Example 217, 2-cyclopropyl-6-oxo-N-{(1R)-1-[4-(2,2,2-trifluoroethyl)phenyl]ethyl}-1,6-dihydropyrimidine-4-carboxamide] | 29 | 14 | – | – |
| CCc1nc(C(=O)N[C@@H](C)c2ccc(C(F)(F)F)cc2)cc(=O)[nH]1 [Example 135, 2-ethyl-6-oxo-N-{(1S)-1-[4-(trifluoromethyl)phenyl]ethyl}-1,6-dihydropyrimidine-4-carboxamide] | 1650 | 1140 | – | – |
| CC(C)(C)[C@@H](NC(=O)c1cc(=O)[nH]c(-c2ncccn2)n1)c1ccc(OC(F)F)cc1 [Example 450, N-{(1R)-1-[4-(difluoromethoxy)phenyl]-2,2-dimethylpropyl}-6-oxo-1,6-dihydro-2,2′-bipyrimidine-4-carboxamide] | – | – | 23 | 21 |
| C[C@@H](NC(=O)c1cc(=O)[nH]c(C2CC2)n1)c1cc(F)c(C(F)(F)F)c(F)c1 [Example 218, 2-cyclopropyl-N-{(1R)-1-[3,5-difluoro-4-(trifluoromethyl)phenyl]ethyl}-6-oxo-1,6-dihydropyrimidine-4-carboxamide] | 104 | 56 | – | – |
| O=C(N[C@@H](c1ccc(OC(F)(F)F)c(F)c1)C1CC1)c1cc(=O)[nH]c(C2CC2)n1 [Example 212] | 6.1 | 2.6 | – | – |
| Cc1nc(C(=O)N[C@@H](c2ccc(S(F)(F)(F)(F)F)cc2)C(C)(C)C)cc(=O)[nH]1 [Example 618, N-{(1R)-2,2-dimethyl-1-[4-(pentafluoro-λ^6-sulfanyl)phenyl]propyl}-2-methyl-6-oxo-1,6-dihydropyrimidine-4-carboxamide] | – | – | 2 | 2 |
| COc1ccc(C(C)(C)c2nc(C(=O)N[C@@H](c3ccc(OC(F)(F)F)cc3)C(C)C)cc(=O)[nH]2)cc1 [Example 494, 2-[1-(4-methoxyphenyl)-1-methylethyl]-N-{(1R)-2-methyl-1-[4-(trifluoromethoxy)phenyl]propyl}-6-oxo-1,6-dihydropyrimidine-4-carboxamide] | – | – | 54 | 46 |
